For assay [1], the target named is T1, recombinant MMP-2 (Homo sapiens, UniProt P08253).
T1 construct: purchased ab139446
T1 sequence (P08253 110-660): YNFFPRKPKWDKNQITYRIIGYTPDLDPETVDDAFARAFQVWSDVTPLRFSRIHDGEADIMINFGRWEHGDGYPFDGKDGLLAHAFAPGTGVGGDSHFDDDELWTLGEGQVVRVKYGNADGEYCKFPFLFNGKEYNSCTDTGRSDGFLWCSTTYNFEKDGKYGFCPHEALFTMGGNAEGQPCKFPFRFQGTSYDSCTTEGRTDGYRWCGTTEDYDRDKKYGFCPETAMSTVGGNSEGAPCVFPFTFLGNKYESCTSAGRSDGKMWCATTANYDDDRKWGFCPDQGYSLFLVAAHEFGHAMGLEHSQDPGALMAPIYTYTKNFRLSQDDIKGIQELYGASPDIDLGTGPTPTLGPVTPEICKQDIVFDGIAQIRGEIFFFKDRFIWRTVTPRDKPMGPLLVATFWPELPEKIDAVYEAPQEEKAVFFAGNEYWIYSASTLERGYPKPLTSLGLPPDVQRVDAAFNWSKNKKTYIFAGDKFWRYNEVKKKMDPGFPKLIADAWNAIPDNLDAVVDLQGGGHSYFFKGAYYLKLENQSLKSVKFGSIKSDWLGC
In words: MMP-2 Inhibitor Screening Assay Kit (colorimetric). The class given is biochemical. The protocol: MMP-2 is an important target for inhibitor screening due to its involvement in cancer growth, angiogenesis, and metastasis. The MMP-2 screening assay was carried out with a commercially available MMP-2 Inhibitor Screening Assay Kit (Colorimetric, Catalog: ab139446) based on the manufacturers protocol. This assay is based on quantification of recombinant MMP-2 activity using a colorimetric assay (MMP-2 degrades a chromogenic substrate). The assay provides NNGH (N-isobutyl-N-(4-methoxyphenylsulfonyl) glycyl hydroxamic acid), a small molecule inhibitor, as a positive control (NNGH). […] Each determination was run in duplicate.
% Inhibition rate=(Vinhibitor/Vcontrol)×100
Briefly, MMP Substrate and MMP Inhibitor were warmed to room temperature to thaw DMSO. MMP Inhibitor (NNGH), MMP-2 substrate and MMP-2 enzyme were diluted with assay buffer to required concentration. 20 μL of MMP-2 enzyme and MMP-2 inhibitor (peptides, Chlorotoxin and NNGH) was added, then 50 μL of assay buffer was added and the reaction mixture incubated at 37° C. for 1 h. After incubation, 10 μL of MMP Substrate was added to start reaction. The reactions were continuously read at 412 nm in a microplate reader. Data was recorded at 1 min. time intervals for 10 to 20 min. The data as was plotted as optical density (OD) versus time for each sample. The reaction velocity (V) was obtained in OD/min: determine the slope of a line fit to the linear portion of the data plot using an appropriate routine. Then using the equation above the inhibitor % activity remaining was calculated. The control was without inhibitor.

Assay [2] relates to uPA. In words: Casein-plasminogen zymography of conditioned media, uPA production. The format is cell-based, human. The conditions noted are these: for uPA production: compared to control containing no peptide. The source says:
To assess whether the peptide SEQ ID NO.1 impacted MMP-2, MMP-9 and uPA production Zymography was used.
Zymography is a technique for studying hydrolytic enzymes on the basis of substrate degradation. The in-gel zymography hydrolytic enzymes are separated by their molecular weights and detected by their ability to degrade a substrate. To detect the activity of MMP-2 and MMP-9 in various cell lines, conditioned media were collected in 3 independent experiments and analysed by gelatin zymography to quantify the level of gelatin digestion, which reflects MMP-2 and MMP-9 activity and production. Casein-Plasminogen zymography was conducted to determine the activity level of uPA in the conditioned medium from various cell lines. Active uPA converts plasminogen into plasmin which then digests casein, thus clear bands where digestion of casein have occurred indirectly represent uPA activity.
The effect of the peptides on matrix protease production was tested using in-gel zymography. If the substrate included in the gel is gelatin, the enzymes detected are gelatinases: MMP-2 and MMP-9 (the latter is often of low abundance). If the gel contains casein and plasminogen, the enzymes tested are urokinase plasminogen activators (uPA); uPA is a therapeutic target in GBM.
An equal amount of protein from each sample was mixed with 5 μL of Laemmli buffer (0.01% Bromophenol Blue (W/V), 5% SDS (W/V), 22% glycerol (V/V), 14% 0.5 M Tris pH 6.8 (V/V)) and loaded onto a 10% polyacrylamide gel co-polymerized with 1 mg/ml of gelatin, and electrophoresed at 120 V for 2 hours on ice. The gel was incubated in […] solution (Triton X-100 2.5% (V/V), 1 M Tris pH 7.5 5% (V/V), 0.5 M CaCl2 1% (W/V) at room temperature overnight on an orbital shaker. The gel was incubated in a second solution for 3 hours at 37° C. The gel was then stained with Coomassie blue solution (Coomassie blue 0.25%, methanol 45%, acetic acid 10%) and destained in methanol 25% (V/V), acetic acid 10% (V/V) destaining solution until clear bands against the dark background appeared around 72 kDa and 95 kDa, representing MMP-2 and MMP-9 activity, respectively. Clear bands around 50 kDa appeared against the dark background representing uPA activity. The gels were scanned, and uPA, MMP-2 and MMP-9 were quantified by densitometry using NIH Image J software.
SEQ ID NO.1 was compared to a control containing no peptide to evaluate whether the peptide can reduce the production of matrix proteinases. […] This could be confirmed using a MMP-9 quantification kit, and altered production by a transcriptional mechanism can be unveiled using qRT-PCR.

Residues, ends and D or L forms follow the SMILES beside them.

As to `CC(C)C[C@@H]1NC(=O)[C@H](C)NC(=O)[C@@H](NC(=O)[C@@H]2CCCN2C(=O)[C@@H](N)CC(C)C)CSSC(C)(C)CNC(=O)CC[C@@H](C(=O)N[C@@H](CCCNC(=N)N)C(N)=O)NC(=O)[C@H](CC(=O)O)NC(=O)[C@H](CC(N)=O)NC1=O` [SEQ ID NO: 1, Leu-Pro-c(SSA*-Ala-Leu-Asn-Asp-Glu)-Arg-NH2] (HELM PEPTIDE1{L.P.C.A.L.N.D.E.R.[am]}|CHEM1{[CC(C)(CN[*:2])S[*:1]]}$PEPTIDE1,CHEM1,3:R3-1:R1|PEPTIDE1,CHEM1,8:R3-1:R2$$$V2.0; N-terminus assumed), the remaining activity at 1 µM in assay [1] (1 μM, 1 h preincubation at 37° C., lower value = higher inhibitory activity, read-out: % inhibition (Vinhibitor/Vcontrol ×100)) was found to be 81%. In addition, in assay [1] (10 μM, lower value = higher inhibitory activity, read-out: % inhibition (Vinhibitor/Vcontrol ×100)), the remaining activity at 10 µM stood at 75.2%. Further, the remaining activity at 100 µM in assay [1] (100 μM, lower value = higher inhibitory activity, read-out: % inhibition (Vinhibitor/Vcontrol ×100)) came to 66.9%. Besides, the “inhibition of MMP-2 activity (in words)” value in assay [1] (1 to 100 μM) is “dose dependent ability to inhibit MMP-2 activity”. In addition, the uPA production in assay [2] (081024 cells) is on record as 96.43 ± 16.6; in assay [2] (U87 cells), 89.03 ± 5.98; in assay [2] (U251 cells) it was 79.92 ± 8.86. For the same compound, the “production of uPA (overall, in words)” value in assay [2] (overall, all cell lines, cell-conditioned media) is “did not decrease”.
